# Results reported in patent publication US20190151283A1, “NON-STEROIDAL SELECTIVE GLUCOCORTICOID RECEPTOR AGONISTIC MODULATORS (SEGRAMs) AND USES THEREOF” (ASSOCIATION POUR LA RECHERCHE À L'IGBMC (ARI), priority 2017, published 2019).
# How the values were obtained:
# [1] = molecular target: T1, glucocorticoid receptor (GR) (Mus musculus, UniProt P06537); assay: GR transcriptional functions in mouse ears after topical 18-hour treatment (q-RT-PCR); format: in vivo; settings: in vivo transcriptional analyses, 1 nmole/cm^2
# T1 construct: RNA transcripts were then extracted from mouse ears; from tissue; host or cells: ear skin of Balb/C mice (in vivo topical treatment)
# T1 sequence (P06537 1-792): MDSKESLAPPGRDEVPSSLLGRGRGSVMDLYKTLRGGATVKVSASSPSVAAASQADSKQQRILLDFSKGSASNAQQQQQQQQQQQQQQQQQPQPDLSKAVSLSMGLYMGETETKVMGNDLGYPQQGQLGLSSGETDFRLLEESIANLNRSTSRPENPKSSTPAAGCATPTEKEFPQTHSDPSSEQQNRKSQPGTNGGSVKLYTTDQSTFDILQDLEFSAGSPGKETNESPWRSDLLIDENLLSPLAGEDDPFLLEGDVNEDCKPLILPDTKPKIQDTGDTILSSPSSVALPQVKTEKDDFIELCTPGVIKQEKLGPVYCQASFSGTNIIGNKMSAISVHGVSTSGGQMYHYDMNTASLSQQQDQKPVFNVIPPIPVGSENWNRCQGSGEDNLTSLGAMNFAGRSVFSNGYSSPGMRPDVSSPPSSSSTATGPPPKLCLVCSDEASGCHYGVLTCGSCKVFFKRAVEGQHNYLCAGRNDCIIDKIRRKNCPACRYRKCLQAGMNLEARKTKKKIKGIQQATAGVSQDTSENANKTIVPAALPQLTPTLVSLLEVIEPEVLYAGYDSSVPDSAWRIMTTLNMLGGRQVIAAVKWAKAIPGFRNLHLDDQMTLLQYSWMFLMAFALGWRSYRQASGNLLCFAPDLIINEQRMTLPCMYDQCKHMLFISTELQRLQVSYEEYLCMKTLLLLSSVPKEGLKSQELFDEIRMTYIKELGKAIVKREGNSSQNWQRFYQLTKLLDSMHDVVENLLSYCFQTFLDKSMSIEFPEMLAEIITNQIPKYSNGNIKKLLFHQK
# Method: RNA transcripts were then extracted from mouse ears and the transcripts of 4 genes were analyzed by q-RT-PCR: • (i) the directly GR-transactivated gene of the mTOR inhibitor REDD1, • (ii) the GR-directly transrepressed gene of keratin 5 (K5) and • (iii) the GR-indirectly “tethered” transrepressed genes of interleukin-1β (IL-1β) and interleukin-6 (IL-6), both being activated in presence of 12-O-tetradecanoylphorbol-13-acetate (TPA).
# Balb/C mice = assay: Skin atrophy after 8-day topical treatment of dorsal skin; format: in vivo, mouse
# Text: To investigate whether, similarly to Dex, a topical administration of CpdX could result in a skin atrophy, Balb/C mice were shaved on the dorsal skin. Ethanol (vehicle), Dex, CpdX or either one of its two enantiomers CpdX(eA) or CpdX(eB), as well as the deuterated form CpdX-D3 or either one of its two enantiomers CpdX-D3(eA) or CpdX-D3(eB), were topically applied onto the dorsal skin for 8 days.
# Upon completion of the treatments, RNA transcripts were extracted from dorsal skin samples and the transcripts of Kindlin-1 and REDD1 genes were analyzed by q-RT-PCR. Histological and morphometric analyses of the dorsal skin were also performed.
# B6 male mice [2] = assay: Bone formation after three-month treatment (micro-CT, WNT16 transcripts); format: in vivo, mouse; settings: three months
# Method: (§1) B6 male mice (8-week-old) were daily subjected for three months to either a subcutaneous injection of vehicle (NaCl 0.9%), Dex, CpdX, CpdX(eA), CpdX(eB), CpdX-D3, CpdX-D3(eA) or CpdX-D3(eB) (1 mg/kg body weight, diluted in NaCl 0.9%).
# From each animal included in the experiments, one femur and the ipsilateral tibia were dissected and preserved in 70% ethanol for further bone microstructure analysis by micro-CT. The FX Quantum micro-CT scanner (Perkin Elmer) was used to perform measurements at the distal femur and midshaft tibia. All scans were performed with an isotropic voxel size of 10 μm, 160 μA tube current and 90 kV tube voltage.
# Morphological 3D measurements were performed using the CTAn software (Bruker). Cortical bone parameters, which were measured in the tibia midshaft, included measures of the bone volume fraction as compared to the total volume, cortical thickness, total area, bone area and marrow area. The region of interest was selected from below the distal tibial crest and continued for 20 slices toward the proximal end of the tibia. Trabecular bone parameters were measured in the distal metaphysis of the femurs and included bone volume fraction, trabecular thickness, trabecular number and trabecular spacing. The region of interest was selected from below the distal growth plate where the epiphyseal cap structure completely disappeared and continued for 100 slices toward the proximal end of the femur.
# The statistical significance as compared to vehicle treatment was calculated through one-way ANOVA test followed by Dunn's multiple comparison test, *p<0.05; **p<0.01; ***p<0.001; ****p<0.0001.
# B6 male mice [3] = assay: Body weight and body composition after three-month treatment; format: in vivo, mouse; settings: s.c. 1 mg/kg daily, 3 months
# Method: B6 male mice (8-week-old) were daily subjected for three months to a subcutaneous injection of either vehicle (NaCl 0.9%), Dex, CpdX or CpdX-D3 (1 mg/kg body weight, diluted in vehicle. A pDEXA machine was used to determine the lean mass and fat mass. The statistical significance was calculated through Krustal-Walis test followed by a Dunn's multiple comparison test, *p<0.05; **p<0.01; ***p<0.001.
# B6 male mice [4] = assay: Organ weights (thymus, spleen, adrenal gland, kidney) after three-month treatment; format: in vivo, mouse; settings: s.c. 1 mg/kg daily, three months
# Method: as §1, with “to” for “to either”, “of either” for “of”, “vehicle). Following these treatments, four organs (thymus, spleen, adrenal gland and kidney) were harvested and weighted.” for “NaCl 0.9%).”
# B6 male mice [5] = assay: Corticosterone synthesis and adrenal gland after three-month treatment; format: in vivo, mouse
# Method: B6 male mice (8-week-old) were daily subjected for three months to either a subcutaneous injection of vehicle (NaCl 0.9%), Dex, CpdX, CpdX(eA), CpdX(eB), CpdX-D3, CpdX-D3(eA) or CpdX-D3(eB) (1 mg/kg body weight, diluted in vehicle).
# Following this long-term treatment, blood was collected at 10 a.m. and 6 p.m. by retro-orbital puncture in lithium-heparin coated vials, and the plasmatic level of corticosterone was determined. Adrenal glands were harvested and weighted. RNA transcripts were extracted and transcripts of the Cyp11a, Cyp11b1, Cyp11b2 and HSD3β genes were analyzed by q-RT-PCR. Histological analyses of the adrenal glands were also carried out.
# B6 male mice [6] = assay: Blood glucose and intraperitoneal glucose tolerance test after three-month treatment; format: in vivo, mouse
# Method: B6 male mice (8-week-old) were daily subjected for three months to a subcutaneous injection of either vehicle (NaCl 0.9%), Dex, CpdX, CpdX(eA), CpdX(eB), CpdX-D3, CpdX-D3(eA) or CpdX-D3(eB) (1 mg/kg body weight, diluted in vehicle). Mice were over-night-fasted. Mouse blood glucose concentration was measured before (T0) and during two hours (T120) after glucose i.p. injection ([…] body weight).
# B6 male mice [7] = assay: Insulin level, insulin tolerance test and liver insulin signalling after three-month treatment; format: in vivo, mouse
# Method: B6 male mice (8-week-old) were subjected daily for three months to a subcutaneous injection of either vehicle (NaCl 0.9%), Dex, CpdX, CpdX(eA), CpdX(eB), CpdX-D3, CpdX-D3(eA) or CpdX-D3(eB) (1 mg/kg body weight, diluted in vehicle). After three months, the blood was collected at 10 a.m. by retro-orbital puncture in lithium-heparin coated vials, and the plasmatic level of insulin was determined.
# For the intraperitoneal insulin tolerance test (IPITT), mice were fasted for 6 hours before test. The blood glucose concentration was measured both before (T0) and during a one-hour period after insulin i.p. injection (0.75 U/kg body weight).
# Following this three-month treatment, liver samples were harvested and lysed in the RIPA buffer (20 mM Tris pH 8, 150 mM NaCl, 10% glycerol, 1% NP-40 and 2 mM EDTA). Antibodies from Cell Signaling were used to assess by Western-Blotting the relative level of p-IRS1 (S318), IRS-1, p-AKT (S473) and AKT.
# B6 male mice [8] = assay: Fatty liver after three-month treatment; format: in vivo, mouse; settings: three months
# Method: B6 male mice (8-week-old) were daily subjected for three months to a subcutaneous injection of either vehicle (NaCl 0.9%), Dex, CpdX, CpdX(eA), CpdX(eB), CpdX-D3, CpdX-D3(eA) or CpdX-D3(eB) (1 mg/kg body weight, diluted in vehicle). Following this treatment, blood was collected at 10 a.m. by retro-orbital puncture in lithium-heparin coated vials. The plasmatic levels of total cholesterol and bile acids were determined.
# Liver samples were harvested. […] RNA transcripts were extracted from liver samples and the transcripts of fatty acid synthase (FASN) and Stearoyl-CoA desaturase 1 (SCD1) genes were analyzed by q-RT-PCR.
# B6 male mice [9] = assay: Bone formation after three-month treatment (micro-CT, WNT16 transcripts); format: in vivo; settings: mouse tibia, three months
smiles,measurement,setting,value
"Cc1ccc2c(NC[C@](O)(CC(C)(C)c3cc(F)cc4c3OCC4)C(F)(F)F)cccc2n1 [Mapracorat, reference compound]","GR functions induced (direct transactivation, direct transrepression, indirect tethered transrepression)",[1],all three GR functions
"C[C@@H]1C[C@H]2[C@@H]3CCC4=CC(=O)C=C[C@]4(C)[C@@]3(F)[C@@H](O)C[C@]2(C)[C@@]1(O)C(=O)CO [Dex, Dexamethasone, reference compound]",epidermal thickness decreases by,"Balb/C mice; eight-day topical treatment, morphometric analysis",≈ 65%
same,"skin atrophy, histological analysis","Balb/C mice; eight-day topical treatment, 'in marked contrast' = no severe atrophy as with Dex",severely induces a skin atrophy
same,transcription of the Kindlin-1 gene in dorsal skin,"Balb/C mice; topical 8 days, 1 nmole/cm^2, 'but not' = not decreased",strongly decreased
same,transcription of the REDD1 gene in dorsal skin,"Balb/C mice; topical 8 days, 1 nmole/cm^2, 'but not' = not increased",significantly increased
same,bone area,"B6 male mice [2]; s.c. 1 mg/kg daily, micro-CT",reduced
same,cortical thickness,"B6 male mice [2]; s.c. 1 mg/kg daily, micro-CT",drastically decreased
same,tibia cortical bone volume as compared to the total volume,"B6 male mice [2]; s.c. 1 mg/kg daily, micro-CT",significantly decreased
same,marrow area,"B6 male mice [2]; s.c. 1 mg/kg daily, 'but not' = not reduced",but not
same,number of trabecula,B6 male mice [2]; data not shown,increase
same,trabecular bone volume,B6 male mice [2]; data not shown,increased
same,trabecular spacing,B6 male mice [2]; data not shown,decrease
same,trabecular thickness,B6 male mice [2]; data not shown,no change
same,fat mass,B6 male mice [3]; pDEXA,disproportional increase
same,lean percentage / lean mass,B6 male mice [3]; pDEXA,decrease
same,body weight,B6 male mice [3]; compared with vehicle,net loss
same,kidney weight,B6 male mice [4],"weak, but significant loss"
same,spleen weight decreased by,B6 male mice [4],more than 50%
same,thymus apoptosis / thymus found,B6 male mice [4],no thymus was found in sixteen out of nineteen mice
same,weight of the adrenal gland,B6 male mice [4],decreased
same,plasmatic corticosterone levels,"B6 male mice [5]; at both 10 a.m. and 6 p.m., compared to control mice (Vehicle)",much lower
same,"cortex layers, most notably the fasciculata zone, of the adrenal glands","B6 male mice [5]; three months, histology",drastically decreased
same,glomerulosa zone of the adrenal cortex,"B6 male mice [5]; three months, histology, 'but not' = not decreased",drastically decreased
same,"transcripts of Cyp11a, Cyp11b1 and HSD3β genes in adrenal glands","B6 male mice [5]; three months, q-RT-PCR",inhibited
same,transcript of the Cyp11b2 gene in adrenal glands,"B6 male mice [5]; three months, q-RT-PCR, 'but not' = not inhibited",inhibited
same,blood glucose level,"B6 male mice [6]; three months, over-night fasting, vs vehicle and CpdX compounds",significantly higher
same,blood glucose level in intraperitoneal glucose tolerance test (IPGTT),B6 male mice [6]; two-hour period after glucose i.p. injection (2 mg/kg body weight),significant higher
same,"IPITT test, response to insulin",B6 male mice [7]; one hour after insulin i.p. 0.75 U/kg,significant impaired response to insulin
same,blood insulin level (hyperinsulinemia),"B6 male mice [7]; three months, 10 a.m., 'but not' = no hyperinsulinemia",hyperinsulinemia
same,phosphorylation of insulin-stimulated protein kinase B (p-AKT S473),"B6 male mice [7]; western-blot, liver",decreased
same,phosphorylated insulin receptor substrate 1 (p-IRS1 S318) in liver extracts,"B6 male mice [7]; western-blot, 'but not' = no decrease",decrease
same,lipid deposition in the liver,B6 male mice [8]; 5% Red oil staining of frozen sections,marked lipid deposition
same,transcripts of fatty acid synthase (FASN) and Stearoyl-CoA desaturase 1 (SCD1) in liver,"B6 male mice [8]; q-RT-PCR, 'but not' = no increase",increase
same,blood cholesterol and bile acids' levels,B6 male mice [8]; 'but not' = no clear increase,clear increase
same,transcription of the WNT16 gene decreased by,B6 male mice [9],50%
